Measured values as given in PubChem BioAssay AID248 (DTP/NCI, 2004).
Where “and” joins values, the source holds several entries; their conditions need not be identical. Equal entries are not always repeated. Toxic doses and inconclusive results are not listed. Rule as the data show it: active = T/C of 150% or more; inactive = T/C below 125%.

Tested on: L1210 leukemia ip in BDF1 mice, survival T/C
Test: NCI In Vivo Anticancer Drug Screen. Data for tumor model L1210 Leukemia (intraperitoneal) in B6D2F1 (BDF1) mice
Conditions: endpoint: mean survival time, higher = longer survival
In short: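 Tumor was transplanted into mice, which were then dosed with test compound or vehicle alone. Survival was recorded for each group, and the treated figure was expressed relative to the control figure.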

[1] = dose: 50.0 mg/kg/injection, schedule: Q04DX003 (ip), vehicle: saline with Tween-80
[2] = dose: 100.0 mg/kg/injection, schedule: Q04DX003 (ip), vehicle: saline with Tween-80
[3] = dose: 100.0 mg/kg/injection, schedule: Q01DX009 (ip), vehicle: saline with Tween-80
[4] = dose: 200.0 mg/kg/injection, schedule: Q01DX009 (ip), vehicle: saline with Tween-80
[5] = dose: 200.0 mg/kg/injection, schedule: Q04DX003 (ip), vehicle: saline with Tween-80
[6] = dose: 50.0 mg/kg/injection, schedule: Q01DX001 (ip), vehicle: carboxymethylcellulose (CMC)
[7] = dose: 100.0 mg/kg/injection, schedule: Q01DX001 (ip), vehicle: carboxymethylcellulose (CMC)
[8] = dose: 200.0 mg/kg/injection, schedule: Q01DX001 (ip), vehicle: carboxymethylcellulose (CMC)
[9] = dose: 100.0 mg/kg/injection, schedule: Q01DX001 (ip), vehicle: saline
[10] = dose: 200.0 mg/kg/injection, schedule: Q01DX001 (ip), vehicle: saline
[11] = dose: 400.0 mg/kg/injection, schedule: Q01DX001 (ip), vehicle: saline
[12] = dose: 100.0 mg/kg/injection, schedule: Q04DX003 (ip), vehicle: Klucel (hydroxypropylcellulose) (HPC)
[13] = dose: 200.0 mg/kg/injection, schedule: Q04DX003 (ip), vehicle: Klucel (hydroxypropylcellulose) (HPC)
[14] = dose: 400.0 mg/kg/injection, schedule: Q04DX003 (ip), vehicle: Klucel (hydroxypropylcellulose) (HPC)
[15] = dose: 75.0 mg/kg/injection, schedule: Q01DX001 (ip), vehicle: saline
[16] = dose: 150.0 mg/kg/injection, schedule: Q01DX001 (ip), vehicle: saline
[17] = dose: 100.0 mg/kg/injection, schedule: Q04DX003 (ip), vehicle: saline
[18] = dose: 200.0 mg/kg/injection, schedule: Q04DX003 (ip), vehicle: saline
[19] = dose: 400.0 mg/kg/injection, schedule: Q04DX003 (ip), vehicle: saline
[20] = dose: 100.0 mg/kg/injection, schedule: Q01DX009 (ip), vehicle: Klucel (hydroxypropylcellulose) (HPC)
[21] = dose: 200.0 mg/kg/injection, schedule: Q01DX009 (ip), vehicle: Klucel (hydroxypropylcellulose) (HPC)
[22] = dose: 200.0 mg/kg/injection, schedule: Q04DX002 (ip), vehicle: saline
[23] = dose: 400.0 mg/kg/injection, schedule: Q04DX002 (ip), vehicle: saline
[24] = dose: 25.0 mg/kg/injection, schedule: Q04DX002 (ip), vehicle: saline
[25] = dose: 50.0 mg/kg/injection, schedule: Q04DX002 (ip), vehicle: saline

Measured: T/C

O=C(CCl)NCCCNC(=O)CCl
inactive: dose: 6.25 mg/kg/injection, schedule: Q01DX009 (ip), vehicle: other 94 % of control | dose: 12.5 mg/kg/injection, schedule: Q01DX009 (ip), vehicle: other 94 % of control | dose: 25.0 mg/kg/injection, schedule: Q01DX009 (ip), vehicle: other 94 % of control | dose: 25.0 mg/kg/injection, schedule: Q04DX003 (ip), vehicle: saline with Tween-80 98 % of control | [1] 102 % of control | [2] 111 % of control

CCOC(=O)CCC(C)(c1ccc(O)cc1)c1ccc(O)cc1
inactive: dose: 50.0 mg/kg/injection, schedule: Q01DX009 (ip), vehicle: saline with Tween-80 98 % of control | [1] 93 % of control | [3] 96 % of control | [2] 93 % of control | [4] 96 % of control | [5] 102 % of control

O=C1OC(c2ccccc2)=N/C1=C\c1ccccc1
inactive: [6] 93 % of control | [7] 95 % of control | dose: 100.0 mg/kg/injection, schedule: Q04DX002 (ip), vehicle: gum acacia 91 % of control | [8] 101 % of control | dose: 200.0 mg/kg/injection, schedule: Q04DX002 (ip), vehicle: gum acacia 109 % of control | dose: 400.0 mg/kg/injection, schedule: Q01DX001 (ip), vehicle: carboxymethylcellulose (CMC) 90 % of control | dose: 400.0 mg/kg/injection, schedule: Q04DX002 (ip), vehicle: gum acacia 98 % of control

NC1CCC(CC(=O)O)CC1 (stereo not drawn)
inactive: [9] 105 % of control | [10] 89 % of control | [11] 96 % of control

O=[N+]([O-])c1ccc(-c2cnc(Nc3ccc(Cc4ccc(Nc5ncc(-c6ccc([N+](=O)[O-])cc6)s5)c(Cl)c4)cc3Cl)s2)cc1
inactive: [12] 98 % of control | [13] 106 % of control | [14] 98 % of control

S=C=Nc1cccc(Cl)c1
inactive: [15] 100 % of control | [16] 96 % of control

COc1ccc2nc(C)c(COC(C)=O)c(Cl)c2c1
inactive: dose: 100.0 mg/kg/injection, schedule: Q01DX009 (ip), vehicle: saline 102 % of control | [17] 100 % of control | dose: 200.0 mg/kg/injection, schedule: Q01DX009 (ip), vehicle: saline 92 % of control | [18] 96 % of control | dose: 400.0 mg/kg/injection, schedule: Q01DX009 (ip), vehicle: saline 97 % of control | [19] 112 % of control

Cc1ccc(NC(=O)NNC(=O)CCCC(=O)NNC(=O)Nc2ccc(C)cc2)cc1
inactive: dose: 50.0 mg/kg/injection, schedule: Q01DX001 (ip), vehicle: saline 96 % of control | [9] 102 % of control | [10] 96 % of control | [11] 96 % of control

CCCCCCCCCCCCCCCCOc1ccc(S(=O)(=O)Nc2cc(C(=O)OC)cc(C(=O)OC)c2)cc1[N+](=O)[O-]
inactive: [20] 98 % of control | [12] 93 % of control | [21] 97 % of control | [13] 95 % of control | dose: 400.0 mg/kg/injection, schedule: Q01DX009 (ip), vehicle: Klucel (hydroxypropylcellulose) (HPC) 92 % of control | [14] 91 % of control

NC(=O)NCCC(=O)O
inactive: dose: 100.0 mg/kg/injection, schedule: Q04DX002 (ip), vehicle: saline 115 % of control | [22] 112 % of control | [23] 101 % of control

O=C(Cc1ccccn1)c1ccccn1
inactive: [9] 98 % of control | [17] 100 % of control | [10] 117 % of control | [18] 102 % of control | [11] 119 % of control | [19] 98 % of control

COc1ccc(Cl)cc1NC(=O)Oc1ccc(Br)cc1Br
inactive: [3] 94 % of control | [4] 104 % of control | dose: 400.0 mg/kg/injection, schedule: Q01DX009 (ip), vehicle: saline with Tween-80 99 % of control

N=C(N)c1cccc(NC(=O)c2ccc(C(=O)Nc3cccc(C(=N)N)c3)c(N)c2)c1
inactive: dose: 5.0 mg/kg/injection, schedule: Q01DX Z (ip), vehicle: carboxymethylcellulose (CMC) 106 % of control | dose: 10.0 mg/kg/injection, schedule: Q01DX Z (ip), vehicle: carboxymethylcellulose (CMC) 104 % of control | dose: 20.0 mg/kg/injection, schedule: Q01DX Z (ip), vehicle: carboxymethylcellulose (CMC) 120 % of control

c1ccc2c(c1)OC1(CCSCC1)O2
inactive: [2] 98 % of control | [5] 95 % of control | dose: 400.0 mg/kg/injection, schedule: Q04DX003 (ip), vehicle: saline with Tween-80 97 % of control

CCOC(=O)C(C)(O)C(C)(Cl)c1ccccc1 (stereo not drawn)
inactive: dose: 25.0 mg/kg/injection, schedule: Q01DX009 (ip), vehicle: Klucel (hydroxypropylcellulose) (HPC) 98 % of control | [24] 102 % of control | dose: 28.0 mg/kg/injection, schedule: Q01DX001 (ip), vehicle: saline 107 % of control | dose: 44.0 mg/kg/injection, schedule: Q01DX001 (ip), vehicle: saline 106 % of control | dose: 50.0 mg/kg/injection, schedule: Q01DX009 (ip), vehicle: Klucel (hydroxypropylcellulose) (HPC) 96 % of control | [25] 114 % of control | dose: 66.0 mg/kg/injection, schedule: Q01DX001 (ip), vehicle: saline 104 % of control | [9] 101 % of control | [20] 101 % of control | [16] 104 % of control | [21] 98 % of control | [22] 109 % of control and 111 % of control | [23] 114 % of control

N#CC1(Nc2ccc(-c3ccc(Cl)cc3)cc2)CCCC1
inactive: [6] 91 % of control | [7] 91 % of control | [8] 87 % of control

COc1nn(O)cc(C)c1=NC(C)=O
inactive: dose: 12.5 mg/kg/injection, schedule: Q04DX002 (ip), vehicle: saline 102 % of control | [24] 98 % of control | [25] 105 % of control

O=C(CI)NCc1ccccc1
inactive: [15] 96 % of control

CCOC(=O)c1ccc(N=Cc2cnc3nc(NC(C)=O)[nH]c(=O)c3n2)cc1
inactive: dose: 100.0 mg/kg/injection, schedule: Q01DX001 (ip), vehicle: other 103 % of control | dose: 200.0 mg/kg/injection, schedule: Q01DX001 (ip), vehicle: other 96 % of control | dose: 400.0 mg/kg/injection, schedule: Q01DX001 (ip), vehicle: other 103 % of control

O=c1c2ncn(C3OC(CO)C(O)C3O)c2nc2nc[nH]n12 (stereo not drawn)
inactive: dose: 100.0 mg/kg/injection, schedule: Q01DX005 (ip), vehicle: saline 93 % of control | dose: 200.0 mg/kg/injection, schedule: Q01DX005 (ip), vehicle: saline 98 % of control

CC1CN(Cc2ccc([N+](=O)[O-])cc2)CC(C)N1N (stereo not drawn)
inactive: dose: 50.0 mg/kg/injection, schedule: Q01DX005 (ip), vehicle: saline with Tween-80 98 % of control | dose: 100.0 mg/kg/injection, schedule: Q01DX005 (ip), vehicle: saline with Tween-80 103 % of control
